Measurements reported in PMC3158843 (ACS chemical biology, 2011).
No end group written: not given here.

Key:
[1] = test system: JNK; conditions: cited from earlier work
[2] = target: T1, JNK3α1 (Homo sapiens, UniProt P53779); assay: Kinase-Glo phosphorylation assay, JNK3α1; type: biochemical; conditions: 4-parameter nonlinear regression, 30°C, 60 min
[3] = target: T1, JNK3α1; assay: Fluorescence polarization assay for peptide binding
[4] = test system: JNK on mitochondria of HeLa cells; type: cell-based
[5] = test system: HeLa cells; assay: Mitochondrial membrane potential, JC-1; type: cell-based
[6] = test system: recombinant JNK1α1 / mitochondria of JNK-null fibroblasts; set-up: species or system murine; conditions: TI-JIP 1µM, Tat-SabKIM1 10µM
[7] = test system: HeLa cells; assay: Cytochrome c release, ELISA; type: cell-based; conditions: 25µM anisomycin 4 hours; Tat-SabKIM1 10µM, TI-JIP 1µM, siRNA 50nM
[8] = test system: JNK on mitochondria of HeLa cells; conditions: N-acetylcysteine; earlier data, ref "Recent data from our lab"; cited from earlier work
[9] = target: T1, JNK3α1
[10] = target: JNK1α1 (active, recombinant) (human) (UniProt P45983)
[11] = test system: JNK phosphorylation in HeLa cells; assay: JNK phosphorylation in anisomycin-treated HeLa cells, Western blot; type: cell-based; conditions: 25µM anisomycin
[12] = test system: c-jun phosphorylation in HeLa cells; assay: c-jun phosphorylation in anisomycin-treated HeLa cells, Western blot; type: cell-based; conditions: 25µM anisomycin, 0-120 min
[13] = test system: HeLa cells; conditions: 25µM anisomycin, 4 hours

## Sab KIM1 peptide: Sab KIM1 motif examined earlier as an inhibitor of JNK mediated c-jun phosphorylation (GFESLSVPSPLDLSGPRVVAPPRRRQRRKKRG; not fully specified; retro-inverso configuration; C-terminal amide (-NH2))
[1]; ref [18]
  impact on c-jun phosphorylation: did not impact c-jun phosphorylation

## YGRKKRRQRRRRPKRPTTLNLF-NH2 [Tat-TI-JIP]
[2]; IC50 -vs-Sab, JNK3α1, substrate Sab
  IC50: 0.018 ± 0.009 µM
[2]; IC50 -vs-c-jun, JNK3α1, substrate c-jun
  IC50: 0.038 ± 0.012 µM
[1]; read-out: Ki, inhibition of JNK activity versus ATF-2, ref [19], [20]
  Ki: 0.025 µM
[1]; ref [19]–[21]
  inhibition of JNK catalytic activity with respect to substrate binding: potent inhibitor
[3]
  Kd: 0.45 ± 0.06 µM
[3]; greater affinity for JIP peptide vs Sab peptide, fluorescence polarization
  affinity of JNK3α1 compared to the Sab peptide: 25 -fold
[4]; 25µM anisomycin 30 min, TI-JIP 1µM, Tat-SabKIM1 10µM
  Sab expression on mitochondria of HeLa cells with peptide: without impacting Sab expression
[5]; JC-1, 25µM anisomycin 45 min, Tat-SabKIM1 10µM, TI-JIP 1µM, siRNA 50nM
  mitochondrial membrane potential (MMP) dissipation: decreased the amount of mitochondria with dissipating MMP
[6]
  levels of Sab on isolated mitochondria: did not alter the levels of Sab
[7]
  cytochrome c release from the mitochondria: capable of reducing cytochrome c release

## AVVRPGSLDLR [Sab KIM1 motif]
[1]; ref [15]
  inhibition of JNK phosphorylation of c-jun / transcription factors: little, if any impact

## CC(=O)N[C@@H](CS)C(=O)O [N-acetylcysteine]
[8]
  JNK translocation to the mitochondria: inhibits JNK translocation to the mitochondria

## Tat-TI-JIP (peptide)
[9]
  IC50 of inhibition of JNK3α1 phosphorylation of ATF2 (Kinase-Glo assay): 0.027 µM
  IC50 of inhibition of JNK3α1 phosphorylation of Sab protein (Kinase-Glo assay): 0.018 µM
  IC50 of inhibition of JNK3α1 phosphorylation of c-jun (Kinase-Glo assay): 0.038 µM
[10]
  IC50 of inhibition of JNK1α1 phosphorylation of c-jun (1–79) (Kinase-Glo assay): 0.034 µM

## COc1ccc(C[C@H]2NC[C@H](O)[C@H]2OC(C)=O)cc1 [anisomycin]
[4]; 25µM anisomycin
  phospho-JNK on the mitochondria: as early as 5 minutes and peaked at 30 minutes
[4]; 25µM anisomycin stress
  Sab abundance on the mitochondria: did not have altered abundance
[4]; 25µM anisomycin, Western blot
  JNK species found on the mitochondria: only the 54kDa species was found on the mitochondria
[5]; 25µM anisomycin, 45 min, vs DMSO-treated cells
  increase in percent depolarized mitochondria: 40–50%
[11]; 0-120 min
  JNK phosphorylation: increased JNK phosphorylation between 15 and 30 minutes, and then JNK phosphorylation decreased after 30 minutes
[11]; two hour time course
  total JNK abundance: unchanged
[12]
  c-jun levels: remained constant
  c-jun phosphorylation on serine 73: increased at 15–30 minutes, peaking at 45–60 min, then decreasing following 60 minutes
[13]
  cell death: 50%
[13]; vs DMSO-treated cells
  decrease in viability: ~ 50%
